Columns and labels:
Assay in all cases: relative viability (nuclei count vs DMSO), 5 days (fraction); higher = more cells survive
Bleomycin + Decitabine = compound: CC1=C(N=C(N=C1N)[C@H](CC(=O)N)NC[C@@H](C(=O)N)N)C(=O)N[C@@H]([C@H](C2=CN=CN2)OC3C(C(C(C(O3)CO)O)O)OC4C(C(C(C(O4)CO)O)OC(=O)N)O)C(=O)N[C@H](C)[C@H]([C@H](C)C(=O)N[C@@H]([C@@H](C)O)C(=O)NCCC5=NC(=CS5)C6=NC(=CS6)C(=O)NCCC[S+](C)C)O [Bleomycin] + Nc1ncn([C@H]2C[C@H](O)[C@@H](CO)O2)c(=O)n1 [Decitabine] (partner 2 µM); settings: main component drawn
Outline: (§1)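 Lung cancer cell lines in 1536-well plates were dosed by pin tool the day after seeding, either with one drug alone or with a fixed anchor-drug dose plus five library-drug doses (not always all listed) in √10 steps. After 5 days, cells were fixed and their nuclei stained in one step (final 0.05% Triton X-100, 1% formaldehyde, 1 ug/ml Hoechst), then counted on 4× images. Relative viability is the nuclei count in treated wells divided by that in vehicle wells. Values are medians of duplicate plates.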

Bleomycin + Vorinostat = compound: CC1=C(N=C(N=C1N)[C@H](CC(=O)N)NC[C@@H](C(=O)N)N)C(=O)N[C@@H]([C@H](C2=CN=CN2)OC3C(C(C(C(O3)CO)O)O)OC4C(C(C(C(O4)CO)O)OC(=O)N)O)C(=O)N[C@H](C)[C@H]([C@H](C)C(=O)N[C@@H]([C@@H](C)O)C(=O)NCCC5=NC(=CS5)C6=NC(=CS6)C(=O)NCCC[S+](C)C)O [Bleomycin] + O=C(CCCCCCC(=O)Nc1ccccc1)NO [Vorinostat] (partner 1 µM); settings: main component drawn
Outline: as §1

Etoposide + Lapatinib = compound: COc1cc([C@@H]2c3cc4c(cc3[C@@H](O[C@@H]3O[C@@H]5CO[C@@H](C)O[C@H]5[C@H](O)[C@H]3O)[C@H]3COC(=O)[C@H]23)OCO4)cc(OC)c1O [Etoposide] + CS(=O)(=O)CCNCc1ccc(-c2ccc3ncnc(Nc4ccc(OCc5cccc(F)c5)c(Cl)c4)c3c2)o1 [Lapatinib] (partner 2 µM)
Outline: as §1

Etoposide + Alpelisib = compound: COc1cc([C@@H]2c3cc4c(cc3[C@@H](O[C@@H]3O[C@@H]5CO[C@@H](C)O[C@H]5[C@H](O)[C@H]3O)[C@H]3COC(=O)[C@H]23)OCO4)cc(OC)c1O [Etoposide] + Cc1nc(NC(=O)N2CCC[C@H]2C(N)=O)sc1-c1ccnc(C(C)(C)C(F)(F)F)c1 [Alpelisib] (partner 2 µM)
Outline: as §1

Cell Line	relative viability (Bleomycin + Decitabine; first compound 0.01 µM)	relative viability (Bleomycin + Decitabine; first compound 0.03162 µM)	relative viability (Bleomycin + Decitabine; first compound 0.1 µM)	relative viability (Bleomycin + Decitabine; first compound 0.3162 µM)	relative viability (Bleomycin + Decitabine; first compound 1 µM)	relative viability (Bleomycin + Vorinostat; first compound 0.01 µM)	relative viability (Bleomycin + Vorinostat; first compound 0.03162 µM)	relative viability (Bleomycin + Vorinostat; first compound 0.1 µM)	relative viability (Bleomycin + Vorinostat; first compound 0.3162 µM)	relative viability (Bleomycin + Vorinostat; first compound 1 µM)	relative viability (Etoposide + Lapatinib; first compound 0.01 µM)	relative viability (Etoposide + Lapatinib; first compound 0.03162 µM)	relative viability (Etoposide + Lapatinib; first compound 0.1 µM)	relative viability (Etoposide + Lapatinib; first compound 0.3162 µM)	relative viability (Etoposide + Lapatinib; first compound 1 µM)	relative viability (Etoposide + Alpelisib; first compound 0.01 µM)	relative viability (Etoposide + Alpelisib; first compound 0.03162 µM)	relative viability (Etoposide + Alpelisib; first compound 0.1 µM)	relative viability (Etoposide + Alpelisib; first compound 0.3162 µM)	relative viability (Etoposide + Alpelisib; first compound 1 µM)
NCI-H838	0.398	0.369	0.297	0.228	0.478	0.571	0.41	0.274	0.267	0.265	0.996	1.02	0.617	0.478	0.171	0.951	1.08	0.887	0.666	0.387
NCI-H1355	0.319	0.341	0.371	0.314	0.2	0.599	0.627	0.676	0.325	0.207	1.09	1.03	0.472	0.775	0.248	0.811	0.969	0.343	0.53	0.304
NCI-H1395	0.563	0.593	0.513	0.394	0.305	0.574	0.656	0.403	0.35	0.359	0.907	1.09	0.969	0.836	0.74	1.02	1.14	0.773	0.798	0.69
NCI-H1437	0.472	0.527	0.518	0.428	0.377	0.712	0.758	0.733	0.458	0.413	0.754	0.837	0.577	0.398	0.186	0.915	0.945	0.883	0.42	0.256
NCI-H1651	0.619	0.461	0.477	0.333	0.192	0.519	0.505	0.392	0.356	0.152	0.753	0.774	0.614	0.199	0.121	0.844	0.833	0.984	0.511	0.24
NCI-H1666	0.699	0.56	0.505	0.442	0.388	0.786	0.926	0.885	0.652	0.613	0.616	0.692	0.371	0.305	0.28	0.929	0.931	0.69	0.315	0.28
NCI-H1734	0.453	0.477	0.414	0.272	0.2	0.612	0.623	0.472	0.231	0.15	0.971	1.05	0.612	0.515	0.273	0.698	0.822	0.509	0.517	0.381
NCI-H1755	0.667	0.706	0.651	0.561	0.506	0.606	0.736	0.714	0.521	0.636	1.06	1.13	1.02	0.988	0.71	0.919	0.907	0.888	0.871	0.639
NCI-H1793	0.483	0.472	0.37	0.175	0.246	0.714	0.647	0.525	0.215	0.141	0.543	0.682		0.687	0.288	0.563	0.78		0.718	0.341
NCI-H1915	0.259	0.237	0.238	0.193	0.141	0.377	0.383	0.291	0.162	0.116	0.907	1.03	0.913	0.749	0.524	0.999	1.17	0.967	0.99	0.631
NCI-H1944	0.365	0.321	0.275	0.252	0.159	0.284	0.244	0.265	0.154	0.152	0.76	1.01	0.499	0.363	0.226	0.742	0.969	0.645	0.564	0.249
NCI-H1975	0.327	0.437	0.291	0.209	0.177	0.482	0.514	0.386	0.215	0.162	0.857	1.04	0.739	0.528	0.214	0.621	0.822	0.693	0.56	0.273
NCI-H1993	0.602	0.507	0.556	0.519	0.436	0.669	0.585	0.864	0.303	0.386	0.95	0.797	0.75	0.659	0.657	0.741	0.719	0.649	0.624	0.533
NCI-H2009	0.39	0.392	0.353	0.293	0.271	0.662	0.739	0.854	0.541	0.36	0.885	1.08	0.856	0.408	0.247	1.12	1.18	1.19	1.06	0.388
